Assay results from US11078216B2, “Bisaryl amides as NRF2 activators” (GLAXOSMITHKLINE INTELLECTUAL PROPERTY DEVELOPMENT LIMITED, priority 2016, dated 2021).
Like-named read-outs stand apart in the source and are kept apart here.

Columns and labels:
[1] = system: NRF2 (NQO1 activity as marker for NRF2 activation), BEAS-2B cells; assay: BEAS-2B NQO1 MTT Assay; format: cell-based; conditions: EC50 of NQO1 specific activity induction, 48 hours incubation, read-out: EC50
Procedure, shortened: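 BEAS-2B cells were exposed to compound for 48 h at 37° C, 5% CO2, then lysed. NQO1 activity was measured kinetically by MTT reduction at 570 nm over 30 minutes; EC50 came from 3-parameter fit of Delta OD/min versus log concentration.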

rats [2] = conditions: rats on a choline-deficient L-amino acid-defined diet; cited from earlier work
[3] = system: COPD macrophages and alveolar macrophages from cigarette smoke-exposed mice; conditions: cited from earlier work
rats [4] = conditions: cerebral ischemia-reperfusion model; cited from earlier work
mice = conditions: NRF2 wild-type vs KO mice after administration; cited from earlier work

CC[C@@H]1CN(Cc2cc([C@@H](c3ccc4c(nnn4CC)c3C)C(C)(C)C(=O)NCC(N)=O)ccc2C)S(=O)(=O)c2ccccc2O1 [Example 208, (S)-N-(2-amino-2-oxoethyl)-3-(3-(((R)-4-ethyl-1,1-dioxido-3,4-dihydro-2H-benzo[b][1,4,5]oxathiazepin-2-yl)methyl)-4-methylphenyl)-3-(1-ethyl-4-methyl-1H-benzo[d][1,2,3]triazol-5-yl)-2,2-dimethylpropanamide]
EC50 ([1]; Homo sapiens): 10 to 100 nM

CC[C@@H]1CN(Cc2cc([C@@H](c3ccc4c(nnn4CC)c3C)C(C)(C)C(=O)N[C@@H](CCC(=O)O)C(=O)O)ccc2C)S(=O)(=O)c2ccccc2O1 [Example 209, (S)-2-((S)-3-(3-(((R)-4-ethyl-1,1-dioxido-3,4-dihydro-2H-benzo[b][1,4,5]oxathiazepin-2-yl)methyl)-4-methylphenyl)-3-(1-ethyl-4-methyl-1H-benzo[d][1,2,3]triazol-5-yl)-2,2-dimethylpropanamido)pentanedioic acid]
EC50 ([1]; Homo sapiens): 1000 to 10000 nM

CC[C@@H]1CN(Cc2cc([C@@H](c3ccc4c(nnn4CC)c3C)C(C)(C)C(=O)N[C@H](CCC(=O)O)C(=O)O)ccc2C)S(=O)(=O)c2ccccc2O1 [Example 210, (R)-2-((S)-3-(3-(((R)-4-ethyl-1,1-dioxido-3,4-dihydro-2H-benzo[b][1,4,5]oxathiazepin-2-yl)methyl)-4-methylphenyl)-3-(1-ethyl-4-methyl-1H-benzo[d][1,2,3]triazol-5-yl)-2,2-dimethylpropanamido)pentanedioic acid]
EC50 ([1]; Homo sapiens): 100 to 1000 nM

CC[C@@H]1CN(Cc2cc([C@@H](c3ccc4c(nnn4CC)c3C)C(C)(C)C(=O)N[C@@H](CC(N)=O)C(=O)O)ccc2C)S(=O)(=O)c2ccccc2O1 [Example 211, (S)-4-amino-2-((S)-3-(3-(((R)-4-ethyl-1,1-dioxido-3,4-dihydro-2H-benzo[b][1,4,5]oxathiazepin-2-yl)methyl)-4-methylphenyl)-3-(1-ethyl-4-methyl-1H-benzo[d][1,2,3]triazol-5-yl)-2,2-dimethylpropanamido)-4-oxobutanoic acid]
EC50 ([1]; Homo sapiens): 1000 to 10000 nM

CC[C@@H]1CN(Cc2cc([C@@H](c3ccc4c(nnn4CC)c3C)C(C)(C)C(=O)N[C@H](CC(N)=O)C(=O)O)ccc2C)S(=O)(=O)c2ccccc2O1 [Example 212, (R)-4-amino-2-((S)-3-(3-(((R)-4-ethyl-1,1-dioxido-3,4-dihydro-2H-benzo[b][1,4,5]oxathiazepin-2-yl)methyl)-4-methylphenyl)-3-(1-ethyl-4-methyl-1H-benzo[d][1,2,3]triazol-5-yl)-2,2-dimethylpropanamido)-4-oxobutanoic acid]
EC50 ([1]; Homo sapiens): 100 to 1000 nM

CC[C@@H]1CN(Cc2cc([C@@H](c3ccc4c(nnn4CC)c3C)C(C)(C)C(=O)N(CCC(=O)O)CC(=O)O)ccc2C)S(=O)(=O)c2ccccc2O1 [Example 213, 3-((S)-N-(carboxymethyl)-3-(3-(((R)-4-ethyl-1,1-dioxido-3,4-dihydro-2H-benzo[b][1,4,5]oxathiazepin-2-yl)methyl)-4-methylphenyl)-3-(1-ethyl-4-methyl-1H-benzo[d][1,2,3]triazol-5-yl)-2,2-dimethylpropanamido)propanoic acid]
EC50 ([1]; Homo sapiens): 10 to 100 nM

O=C(NCc1ccccn1)Nc1nnc(-c2ccco2)o1 [NK-252]
progression of histologic abnormalities, especially hepatic fibrosis (rats [2]): significantly attenuated

C[S+]([O-])CCCCN=C=S (stereo not shown) [Sulforaphane]
expression of Macrophage Receptor with Collagenous structure (MARCO) ([3]; COPD macrophages and alveolar macrophages from cigarette smoke-exposed mice): increases
bacterial phagocytosis and bacterial clearance ([3]; Pseudomonas aeruginosa, non-typable Haemophilus influenzae, ex vivo and in vivo): improving

Cc1c(-c2cnccn2)ssc1=S [oltipraz]
progression of histologic abnormalities, especially hepatic fibrosis (rats [2]): significantly attenuated

CC(C)(C)c1cc(O)ccc1O [tBHQ, tert-butylhydroquinone]
cortical damage (rats [4]): reduced cortical damage
cortical glutathione levels (mice): increased in NRF2 wild-type but not KO mice

(S)-3-(1,4-Dimethyl-1H-benzo[d][1,2,3]triazol-5-yl)-3-(3-(((R)-2-ethyl-2,3-dihydropyrido[3,44][1,4]oxazepin-4(5H)-yl)methyl)-4-methylphenyl)-2,2-dimethyl-N-(pyridin-3-yl)propanamide [Example 111]
EC50 [1]: 100 to 1000 nM
